Reference: patent publication US11524968B2, “Heterocyclic compound as a protein kinase inhibitor” (HK inno.N Corporation, priority 2017, dated 2022)
pIC50: −log10 of the molar value.

molecular target: JAK1 (Homo sapiens (Human), UniProt P23458); assay: Analysis of JAK1 activity inhibition ability (ADP-Glo Kinase Assay); format: biochemical; settings: JAK1 enzyme, ADP-Glo luminescence, ATP 250 uM, IRS-itide substrate, 30° C. 40 minutes; read-out: IC50
How it was run: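 JAK1 enzyme, IRS-itide substrate (40 ng/mL) and 250 uM ATP, both as prepared in kinase buffer (Tris-HCl pH 7.5, MgCl2, BSA, DTT), reacted with compound 40 min at 30 °C. ADP formed was detected by ADP-Glo luminescence; IC50 is the concentration giving 50% inhibition versus control.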

Sequence of JAK1 (P23458 whole entry): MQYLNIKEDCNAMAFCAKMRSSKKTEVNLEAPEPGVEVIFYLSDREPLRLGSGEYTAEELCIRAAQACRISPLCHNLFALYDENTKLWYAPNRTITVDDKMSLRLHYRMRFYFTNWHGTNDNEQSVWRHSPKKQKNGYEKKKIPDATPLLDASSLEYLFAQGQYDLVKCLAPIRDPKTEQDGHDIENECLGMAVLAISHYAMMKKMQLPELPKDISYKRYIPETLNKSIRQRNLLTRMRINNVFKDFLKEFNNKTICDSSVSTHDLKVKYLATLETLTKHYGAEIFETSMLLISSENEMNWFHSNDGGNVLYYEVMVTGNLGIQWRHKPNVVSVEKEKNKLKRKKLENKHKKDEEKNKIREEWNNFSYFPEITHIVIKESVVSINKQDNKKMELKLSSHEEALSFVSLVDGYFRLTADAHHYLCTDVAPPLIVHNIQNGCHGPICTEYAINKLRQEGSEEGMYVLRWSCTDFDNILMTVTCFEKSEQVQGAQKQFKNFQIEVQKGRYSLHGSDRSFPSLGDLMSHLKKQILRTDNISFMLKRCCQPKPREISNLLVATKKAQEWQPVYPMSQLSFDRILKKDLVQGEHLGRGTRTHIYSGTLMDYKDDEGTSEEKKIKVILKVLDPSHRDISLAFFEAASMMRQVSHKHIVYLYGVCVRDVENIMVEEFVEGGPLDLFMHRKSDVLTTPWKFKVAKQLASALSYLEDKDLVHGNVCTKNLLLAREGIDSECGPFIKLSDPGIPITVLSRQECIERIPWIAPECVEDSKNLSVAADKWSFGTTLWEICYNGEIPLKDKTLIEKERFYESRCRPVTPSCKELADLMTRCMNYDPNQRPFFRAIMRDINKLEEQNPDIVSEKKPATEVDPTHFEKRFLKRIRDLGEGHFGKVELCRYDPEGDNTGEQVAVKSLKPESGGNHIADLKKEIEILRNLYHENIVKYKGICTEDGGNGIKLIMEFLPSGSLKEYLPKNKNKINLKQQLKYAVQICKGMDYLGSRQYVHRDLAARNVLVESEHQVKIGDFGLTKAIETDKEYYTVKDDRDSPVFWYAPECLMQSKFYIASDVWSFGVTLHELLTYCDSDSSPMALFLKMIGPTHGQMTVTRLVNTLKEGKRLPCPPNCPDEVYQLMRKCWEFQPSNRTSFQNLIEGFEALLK

SMILES | pIC50
CCc1cc(NS(=O)(=O)C2CCCCC2)ccc1-c1cc(NC(=O)C2CC2)nc2[nH]ccc12 [Example 112, N-(4-(4-(cyclohexanesulfonamido)-2-ethylphenyl)-1H-pyrrolo[2,3-b]pyridin-6-yl)cyclopropanecarboxamide] | 6.70 to 7.70
N#CC1(CC(=O)N2C3CCC2CN(c2nc(NC(=O)C4CC4)nc4[nH]ccc24)C3)CC1 [Example 689, N-(4-(8-(2-(1-cyanocyclopropyl)acetyl)-3,8-diazabicyclo[3.2.1]octan-3-yl)-7H-pyrrolo[2,3-d]pyrimidin-2-yl)cyclopropanecarboxamide] | 6.70 to 7.70
N#CCC1(CS(=O)(=O)Nc2ccc(-c3cc(NC(=O)C4CC4)nc4[nH]ccc34)cc2)CC1 [Example 89, N-(4-(4-(((1-(cyanomethyl)cyclopropyl)methyl)sulfonamido)phenyl)-1H-pyrrolo[2,3-b]pyridin-6-yl)cyclopropanecarboxamide] | > 7.70
O=C(Nc1nc(-c2ccc(NS(=O)(=O)c3ccc(F)c(F)c3)cc2)c2cc[nH]c2n1)C1CC1 [Example 181, N-(4-(4-((3,4-difluorophenyl)sulfonamido)phenyl)-7H-pyrrolo[2,3-d]pyrimidin-2-yl)cyclopropanecarboxamide] | > 7.70
CN1CCN(C(=O)Cc2ccc(-c3cc(NC(=O)C4CC4)nc4[nH]ccc34)cc2)CC1 [Example 550, N-(4-(4-(2-(4-methylpiperazin-1-yl)-2-oxoethyl)phenyl)-1H-pyrrolo[2,3-b]pyridin-6-yl)cyclopropanecarboxamide] | 6.70 to 7.70
N#CCCS(=O)(=O)NC1CC=C(c2cc(NC(=O)C3CC3)nc3[nH]ccc23)CC1 (centres unmarked) [Example 155, N-(4-(4-((2-cyanoethyl)sulfonamido)cyclohex-1-en-1-yl)-1H-pyrrolo[2,3-b]pyridin-6-yl)cyclopropanecarboxamide] | > 7.70
CCCS(=O)(=O)Nc1ccc(-c2cc(NC(=O)C3CC3)nc3[nH]ccc23)c(C)c1 [Example 95, N-(4-(2-methyl-4-(propylsulfonamido)phenyl)-1H-pyrrolo[2,3-b]pyridin-6-yl)cyclopropanecarboxamide] | 6.70 to 7.70
Cc1cc(NS(=O)(=O)CCCC#N)ccc1-c1cc(NC(=O)C2CC2)nc2[nH]ccc12 [Example 96, N-(4-(4-((3-cyanopropyl)sulfonamido)-2-methylphenyl)-1H-pyrrolo[2,3-b]pyridin-6-yl)cyclopropanecarboxamide] | 6.70 to 7.70
O=C(Nc1cc(C2=CC3CCC(C2)N3S(=O)(=O)C2CC2)c2cc[nH]c2n1)C1CC1 (centres unmarked) [Example 177, N-(4-(8-(cyclopropylsulfonyl)-8-azabicyclo[3.2.1]oct-2-en-3-yl)-1H-pyrrolo[2,3-b]pyridin-6-yl)cyclopropanecarboxamide] | 6.70 to 7.70
CCCS(=O)(=O)Nc1ccc(-c2cc(NC(=O)C3CC3)nc3[nH]ccc23)c(C)c1F [Example 100, N-(4-(3-fluoro-2-methyl-4-(propylsulfonamido)phenyl)-1H-pyrrolo[2,3-b]pyridin-6-yl)cyclopropanecarboxamide] | 6.70 to 7.70
NC(=O)c1ccc(S(=O)(=O)Nc2ccc(-c3cc(NC(=O)C4CC4)nc4[nH]ccc34)cc2)cc1 [Example 17, 4-(N-(4-(6-(cyclopropanecarboxamido)-1H-pyrrolo[2,3-b]pyridin-4-yl)phenyl)sulfamoyl)benzamide] | 6.70 to 7.70
CC(C)(C)CS(=O)(=O)Nc1ccc(-c2cc(NC(=O)C3CC3)nc3[nH]ccc23)cc1 [Example 44, N-(4-(4-((2,2-dimethylpropyl)sulfonamido)phenyl)-1H-pyrrolo[2,3-b]pyridin-6-yl)cyclopropanecarboxamide] | > 7.70
CCS(=O)(=O)N1CC(CC#N)(N2CC=C(c3cc(NC(=O)C4CC4)nc4[nH]ccc34)CC2)C1 [Example 616, N-(4-(1-(3-(cyanomethyl)-1-(ethylsulfonyl)azetidin-3-yl)-1,2,3,6-tetrahydropyridin-4-yl)-1H-pyrrolo[2,3-b]pyridin-6-yl)cyclopropanecarboxamide] | > 7.70
O=C(Nc1cc(C2=CC3CCC(C2)N3S(=O)(=O)CCCF)c2cc[nH]c2n1)C1CC1 (centres unmarked) [Example 175, N-(4-(8-((3-fluoropropyl)sulfonyl)-8-azabicyclo[3.2.1]oct-2-en-3-yl)-1H-pyrrolo[2,3-b]pyridin-6-yl)cyclopropanecarboxamide] | 6.70 to 7.70
CCS(=O)(=O)Nc1ccc(-c2cc(NC(=O)C3CC3)nc3[nH]ccc23)c(C)c1F [Example 101, N-(4-(4-(ethylsulfonamido)-3-fluoro-2-methylphenyl)-1H-pyrrolo[2,3-b]pyridin-6-yl)cyclopropanecarboxamide] | 6.70 to 7.70
O=C(Nc1nc(N2CC3CCC(C2)N3CC(=O)N2CCS(=O)(=O)CC2)c2cc[nH]c2n1)C1CC1 [Example 704, N-(4-(8-(2-(1,1-dioxidothiomorpholino)-2-oxoethyl)-3,8-diazabicyclo[3.2.1]octan-3-yl)-7H-pyrrolo[2,3-d]pyrimidin-2-yl)cyclopropanecarboxamide] | < 6.70
N#CCC(=O)N1C2CCC1CN(c1nc(Nc3ccccc3)nc3[nH]ccc13)C2 [Example 721, 3-oxo-3-(3-(2-(phenylamino)-7H-pyrrolo[2,3-d]pyrimidin-4-yl)-3,8-diazabicyclo[3.2.1]octan-8-yl)propanenitrile] | 6.70 to 7.70
C=CCS(=O)(=O)Nc1ccc(-c2cc(NC(=O)C3CC3)nc3[nH]ccc23)cc1 [Example 48, N-(4-(4-(allylsulfonamido)phenyl)-1H-pyrrolo[2,3-b]pyridin-6-yl)cyclopropanecarboxamide] | > 7.70

Second part, the compound after the results:

pIC50 | SMILES
6.70 to 7.70 | N#CCCC(=O)N1CCC=C(c2cc(NC(=O)C3CC3)nc3[nH]ccc23)C1 [Example 421, N-(4-(1-(3-cyanopropanoyl)-1,2,5,6-tetrahydropyridin-3-yl)-1H-pyrrolo[2,3-b]pyridin-6-yl)cyclopropanecarboxamide]
< 6.70 | N#CCC(=O)N1CCN(c2cc(NC(=O)C3CC3)nc3[nH]ccc23)CC1 [Example 676, N-(4-(4-(2-cyanoacetyl)piperazin-1-yl)-1H-pyrrolo[2,3-b]pyridin-6-yl)cyclopropanecarboxamide]
6.70 to 7.70 | O=C(Nc1cc(-c2cnn(C3CN(S(=O)(=O)c4ccc(F)c(F)c4)C3)c2)c2cc[nH]c2n1)C1CC1 [Example 605, N-(4-(1-(1-((3,4-difluorophenyl)sulfonyl)azetidin-3-yl)-1H-pyrazol-4-yl)-1H-pyrrolo[2,3-b]pyridin-6-yl)cyclopropanecarboxamide]
> 7.70 | C[C@@H]1CN(C2(CC#N)CN(S(=O)(=O)C(F)(F)F)C2)CC=C1c1cc(NC(=O)C2CC2)nc2[nH]ccc12 [Example 628, (S)—N-(4-(1-(3-(cyanomethyl)-1-((trifluoromethyl)sulfonyl)azetidin-3-yl)-3-methyl-1,2,3,6-tetrahydropyridin-4-yl)-1H-pyrrolo[2,3-b]pyridin-6-yl)cyclopropanecarboxamide]
< 6.70 | CCS(=O)(=O)N(C)[C@H]1CCN(c2cc(NC(=O)C3CC3)nc3[nH]ccc23)C1 [Example 672, (S)—N-(4-(3-(N-methylethylsulfonamido)pyrrolidin-1-yl)-1H-pyrrolo[2,3-b]pyridin-6-yl)cyclopropanecarboxamide]
6.70 to 7.70 | CSc1ccccc1C(=O)N1CC=C(c2cc(NC(=O)C3CC3)nc3[nH]ccc23)C(C)C1 (centres unmarked) [Example 357, N-(4-(3-methyl-1-(2-(methylthio)benzoyl)-1,2,3,6-tetrahydropyridin-4-yl)-1H-pyrrolo[2,3-b]pyridin-6-yl)cyclopropanecarboxamide]
6.70 to 7.70 | Cc1cc(C(=O)N2CC=C(c3cc(NC(=O)C4CC4)nc4[nH]ccc34)C(C)C2)cc(Cl)n1 (centres unmarked) [Example 375, N-(4-(1-(2-chloro-6-methylisonicotinoyl)-3-methyl-1,2,3,6-tetrahydropyridin-4-yl)-1H-pyrrolo[2,3-b]pyridin-6-yl)cyclopropanecarboxamide]
> 7.70 | O=C(Nc1nc(-c2ccc(NCc3ccc(Cl)cc3)cc2)c2cc[nH]c2n1)C1CC1 [Example 475, N-(4-(4-((4-chlorobenzyl)amino)phenyl)-7H-pyrrolo[2,3-d]pyrimidin-2-yl)cyclopropanecarboxamide]
< 6.70 | CCCCS(=O)(=O)N1CC(n2cc(-c3cc(NC(=O)C4CC4)nc4[nH]ccc34)cn2)C1 [Example 602, N-(4-(1-(1-(butylsulfonyl)azetidin-3-yl)-1H-pyrazol-4-yl)-1H-pyrrolo[2,3-b]pyridin-6-yl)cyclopropanecarboxamide]
6.70 to 7.70 | CCCS(=O)(=O)N1CCN(C(=O)Cc2ccc(-c3cc(NC(=O)C4CC4)nc4[nH]ccc34)cc2)CC1 [Example 564, N-(4-(4-(2-oxo-2-(4-(propylsulfonyl)piperazin-1-yl)ethyl)phenyl)-1H-pyrrolo[2,3-b]pyridin-6-yl)cyclopropanecarboxamide]
< 6.70 | C=CCC(=O)N1CC=C(c2cc(NC(=O)C3CC3)nc3[nH]ccc23)CC1 [Example 270, N-(4-(1-(but-3-enoyl)-1,2,3,6-tetrahydropyridin-4-yl)-1H-pyrrolo[2,3-b]pyridin-6-yl)cyclopropanecarboxamide]
< 6.70 | CCCS(=O)(=O)N1CCN(c2nc(NC(=O)C3CC3)nc3[nH]ccc23)CC1 [Example 668, N-(4-(4-(propylsulfonyl)piperazin-1-yl)-7H-pyrrolo[2,3-d]pyrimidin-2-yl)cyclopropanecarboxamide]
< 6.70 | CC1CC1C(=O)NC1CC=C(c2cc(NC(=O)C3CC3)nc3[nH]ccc23)CC1 (centres unmarked) [Example 244, N-(4-(6-(cyclopropanecarboxamido)-1H-pyrrolo[2,3-b]pyridin-4-yl)cyclohex-3-en-1-yl)-2-methylcyclopropane-1-carboxamide]
6.70 to 7.70 | CC1CN(C(=O)c2cnccn2)CC=C1c1cc(NC(=O)C2CC2)nc2[nH]ccc12 (centres unmarked) [Example 343, N-(4-(3-methyl-1-(pyrazine-2-carbonyl)-1,2,3,6-tetrahydropyridin-4-yl)-1H-pyrrolo[2,3-b]pyridin-6-yl)cyclopropanecarboxamide]
